Experimental data published in US8192962B2, “Processes for detecting toxic substances” (Daikin Industries, Ltd., priority 2001, dated 2012).

Test system: Genes belonging to other category
Assay: DNA chip mRNA expression in yeast, genes belonging to other category (Table 9)
Format: cell-based, Saccharomyces cerevisiae S288C
Summary of the method: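 In this screen, yeast in logarithmic growth are challenged for two hours with a toxic substance at a non-lethal inhibitory concentration. Their mRNA, converted to Cy3- or Cy5-labeled cDNA, hybridizes at 65° C. to a chip spanning every yeast gene, and expression is expressed as a ratio to untreated cells.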

## O=[N+]([O-])c1cc[n+]([O-])c2ccccc12 [(5), 4-nitroquinolin-N-oxide]
Yeast gene YAL055W
  The level of expressed mRNA in the presence of chemical substance/The level of expressed mRNA in the absence of chemical substance: 1.4
Yeast gene YAR009C
  The level of expressed mRNA in the presence of chemical substance/The level of expressed mRNA in the absence of chemical substance: 1.4
Yeast gene YAR010C
  The level of expressed mRNA in the presence of chemical substance/The level of expressed mRNA in the absence of chemical substance: 1.0
Yeast gene YAR062W
  The level of expressed mRNA in the presence of chemical substance/The level of expressed mRNA in the absence of chemical substance: 1.0
Yeast gene YBL005W-A
  The level of expressed mRNA in the presence of chemical substance/The level of expressed mRNA in the absence of chemical substance: 1.3
Yeast gene YBL041W
  The level of expressed mRNA in the presence of chemical substance/The level of expressed mRNA in the absence of chemical substance: 1.6
Yeast gene YBL043W
  The level of expressed mRNA in the presence of chemical substance/The level of expressed mRNA in the absence of chemical substance: 1.1
Yeast gene YBL078C
  The level of expressed mRNA in the presence of chemical substance/The level of expressed mRNA in the absence of chemical substance: 0.7
Yeast gene YBL101C
  The level of expressed mRNA in the presence of chemical substance/The level of expressed mRNA in the absence of chemical substance: 1.0
Yeast gene YBR009C
  The level of expressed mRNA in the presence of chemical substance/The level of expressed mRNA in the absence of chemical substance: 1.4
Yeast gene YBR212W
  The level of expressed mRNA in the presence of chemical substance/The level of expressed mRNA in the absence of chemical substance: 1.0
Yeast gene YBR214W
  The level of expressed mRNA in the presence of chemical substance/The level of expressed mRNA in the absence of chemical substance: 1.1
Yeast gene YBR283C
  The level of expressed mRNA in the presence of chemical substance/The level of expressed mRNA in the absence of chemical substance: 1.4
Yeast gene YBR290W
  The level of expressed mRNA in the presence of chemical substance/The level of expressed mRNA in the absence of chemical substance: 1.0
Yeast gene YCL020W
  The level of expressed mRNA in the presence of chemical substance/The level of expressed mRNA in the absence of chemical substance: 0.5
Yeast gene YCL027W
  The level of expressed mRNA in the presence of chemical substance/The level of expressed mRNA in the absence of chemical substance: 1.2
Yeast gene YCR004C
  The level of expressed mRNA in the presence of chemical substance/The level of expressed mRNA in the absence of chemical substance: 1.2
Yeast gene YCR039C
  The level of expressed mRNA in the presence of chemical substance/The level of expressed mRNA in the absence of chemical substance: 1.9
Yeast gene YCR062W
  The level of expressed mRNA in the presence of chemical substance/The level of expressed mRNA in the absence of chemical substance: 1.4
Yeast gene YCR071C
  The level of expressed mRNA in the presence of chemical substance/The level of expressed mRNA in the absence of chemical substance: 1.2
Yeast gene YCR088W
  The level of expressed mRNA in the presence of chemical substance/The level of expressed mRNA in the absence of chemical substance: 1.1
Yeast gene YCR096C
  The level of expressed mRNA in the presence of chemical substance/The level of expressed mRNA in the absence of chemical substance: 2.1
Yeast gene YDL008W
  The level of expressed mRNA in the presence of chemical substance/The level of expressed mRNA in the absence of chemical substance: 1.8
Yeast gene YDL018C
  The level of expressed mRNA in the presence of chemical substance/The level of expressed mRNA in the absence of chemical substance: 1.8
Yeast gene YDL137W
  The level of expressed mRNA in the presence of chemical substance/The level of expressed mRNA in the absence of chemical substance: 1.8
Yeast gene YDL192W
  The level of expressed mRNA in the presence of chemical substance/The level of expressed mRNA in the absence of chemical substance: 1.4
Yeast gene YDL238C
  The level of expressed mRNA in the presence of chemical substance/The level of expressed mRNA in the absence of chemical substance: 0.9
Yeast gene YDR055W
  The level of expressed mRNA in the presence of chemical substance/The level of expressed mRNA in the absence of chemical substance: 1.7
Yeast gene YDR084C
  The level of expressed mRNA in the presence of chemical substance/The level of expressed mRNA in the absence of chemical substance: 1.2
Yeast gene YDR085C
  The level of expressed mRNA in the presence of chemical substance/The level of expressed mRNA in the absence of chemical substance: 0.9
Yeast gene YDR104C
  The level of expressed mRNA in the presence of chemical substance/The level of expressed mRNA in the absence of chemical substance: 1.3
Yeast gene YDR115W
  The level of expressed mRNA in the presence of chemical substance/The level of expressed mRNA in the absence of chemical substance: 1.4
Yeast gene YDR259C
  The level of expressed mRNA in the presence of chemical substance/The level of expressed mRNA in the absence of chemical substance: 1.0
Yeast gene YDR315C
  The level of expressed mRNA in the presence of chemical substance/The level of expressed mRNA in the absence of chemical substance: 0.9
Yeast gene YDR358W
  The level of expressed mRNA in the presence of chemical substance/The level of expressed mRNA in the absence of chemical substance: 1.4
Yeast gene YDR373W
  The level of expressed mRNA in the presence of chemical substance/The level of expressed mRNA in the absence of chemical substance: 1.8
Yeast gene YDR378C
  The level of expressed mRNA in the presence of chemical substance/The level of expressed mRNA in the absence of chemical substance: 1.0
Yeast gene YDR388W
  The level of expressed mRNA in the presence of chemical substance/The level of expressed mRNA in the absence of chemical substance: 0.7
Yeast gene YDR403W
  The level of expressed mRNA in the presence of chemical substance/The level of expressed mRNA in the absence of chemical substance: 1.2
Yeast gene YDR432W
  The level of expressed mRNA in the presence of chemical substance/The level of expressed mRNA in the absence of chemical substance: 1.6
Yeast gene YDR481C
  The level of expressed mRNA in the presence of chemical substance/The level of expressed mRNA in the absence of chemical substance: 1.0
Yeast gene YDR510W
  The level of expressed mRNA in the presence of chemical substance/The level of expressed mRNA in the absence of chemical substance: 0.7
Yeast gene YEL042W
  The level of expressed mRNA in the presence of chemical substance/The level of expressed mRNA in the absence of chemical substance: 0.7
Yeast gene YEL066W
  The level of expressed mRNA in the presence of chemical substance/The level of expressed mRNA in the absence of chemical substance: 0.8
Yeast gene YER009W
  The level of expressed mRNA in the presence of chemical substance/The level of expressed mRNA in the absence of chemical substance: 1.2
Yeast gene YER021W
  The level of expressed mRNA in the presence of chemical substance/The level of expressed mRNA in the absence of chemical substance: 1.4
Yeast gene YER025W
  The level of expressed mRNA in the presence of chemical substance/The level of expressed mRNA in the absence of chemical substance: 1.5
Yeast gene YER039C
  The level of expressed mRNA in the presence of chemical substance/The level of expressed mRNA in the absence of chemical substance: 1.5
Yeast gene YER094C
  The level of expressed mRNA in the presence of chemical substance/The level of expressed mRNA in the absence of chemical substance: 1.9
Yeast gene YER107C
  The level of expressed mRNA in the presence of chemical substance/The level of expressed mRNA in the absence of chemical substance: 1.3
Yeast gene YER130C
  The level of expressed mRNA in the presence of chemical substance/The level of expressed mRNA in the absence of chemical substance: 1.7
Yeast gene YFL022C
  The level of expressed mRNA in the presence of chemical substance/The level of expressed mRNA in the absence of chemical substance: 0.7
Yeast gene YFL026W
  The level of expressed mRNA in the presence of chemical substance/The level of expressed mRNA in the absence of chemical substance: 1.4
Yeast gene YFL028C
  The level of expressed mRNA in the presence of chemical substance/The level of expressed mRNA in the absence of chemical substance: 1.7
Yeast gene YFL043C
  The level of expressed mRNA in the presence of chemical substance/The level of expressed mRNA in the absence of chemical substance: 1.2
Yeast gene YFR004W
  The level of expressed mRNA in the presence of chemical substance/The level of expressed mRNA in the absence of chemical substance: 1.0
Yeast gene YGL011C
  The level of expressed mRNA in the presence of chemical substance/The level of expressed mRNA in the absence of chemical substance: 1.8
Yeast gene YGL094C
  The level of expressed mRNA in the presence of chemical substance/The level of expressed mRNA in the absence of chemical substance: 1.3
Yeast gene YGL158W
  The level of expressed mRNA in the presence of chemical substance/The level of expressed mRNA in the absence of chemical substance: 1.0
Yeast gene YGL207W
  The level of expressed mRNA in the presence of chemical substance/The level of expressed mRNA in the absence of chemical substance: 1.3
Yeast gene YGL229C
  The level of expressed mRNA in the presence of chemical substance/The level of expressed mRNA in the absence of chemical substance: 1.0
Yeast gene YGR023W
  The level of expressed mRNA in the presence of chemical substance/The level of expressed mRNA in the absence of chemical substance: 1.0
Yeast gene YGR120C
  The level of expressed mRNA in the presence of chemical substance/The level of expressed mRNA in the absence of chemical substance: 1.8
Yeast gene YGR136W
  The level of expressed mRNA in the presence of chemical substance/The level of expressed mRNA in the absence of chemical substance: 1.2
Yeast gene YGR189C
  The level of expressed mRNA in the presence of chemical substance/The level of expressed mRNA in the absence of chemical substance: 0.7
Yeast gene YGR213C
  The level of expressed mRNA in the presence of chemical substance/The level of expressed mRNA in the absence of chemical substance: 1.2
Yeast gene YGR253C
  The level of expressed mRNA in the presence of chemical substance/The level of expressed mRNA in the absence of chemical substance: 2.0
Yeast gene YGR257C
  The level of expressed mRNA in the presence of chemical substance/The level of expressed mRNA in the absence of chemical substance: 1.3
Yeast gene YGR274C
  The level of expressed mRNA in the presence of chemical substance/The level of expressed mRNA in the absence of chemical substance: 1.8
Yeast gene YHR004C
  The level of expressed mRNA in the presence of chemical substance/The level of expressed mRNA in the absence of chemical substance: 1.5
Yeast gene YHR027C
  The level of expressed mRNA in the presence of chemical substance/The level of expressed mRNA in the absence of chemical substance: 1.1
Yeast gene YHR071W
  The level of expressed mRNA in the presence of chemical substance/The level of expressed mRNA in the absence of chemical substance: 1.5
Yeast gene YHR132C
  The level of expressed mRNA in the presence of chemical substance/The level of expressed mRNA in the absence of chemical substance: 1.0
Yeast gene YHR139C
  The level of expressed mRNA in the presence of chemical substance/The level of expressed mRNA in the absence of chemical substance: 1.3
Yeast gene YHR142W
  The level of expressed mRNA in the presence of chemical substance/The level of expressed mRNA in the absence of chemical substance: 1.3
